Consider 14 molecules from patent US5246830A, “Enzymatic process for the determination of β-lactam antibiotics” (Ucb Bioproducts, S.A., priority 1990, dated 1993).

In experiment [1] the target is T1, enzyme R39 (soluble D-alanyl-D-alanine carboxypeptidase produced by Actinomadura R39) (Actinomadura sp. R39, UniProt P39045).
T1 construct: added to milk or serum samples
Kind of experiment: Enzymatic determination of cephapirin in milk (Example 6). Format: biochemical. As to the method: The process is the same as in example 3, but the samples of 3 ml of milk contain known concentrations of cephapirin.

For experiment [2], the target named is T2, enzyme R39 (Actinomadura sp. R39, UniProt P39045). Description: Hydrolysis of thioester-type substrate by enzyme R39 and its activation by D-amino acids. It counts as biochemical. The settings on record: for activating effect on the thioester hydrolysis reaction by enzyme R39: thioester-type substrate of formula I; for activity of enzyme R39 on the substrate: one unit hydrolyzes 1 micromole of substrate per minute at 47° C. An excerpt:
In other words, in the presence of this activator, the rate of hydrolysis of the substrate by enzyme R39 is 40 times higher.

Experiment [3] has as its target T1, enzyme R39 (soluble D-alanyl-D-alanine carboxypeptidase produced by Actinomadura R39). Description: Enzymatic determination of penicillin G in milk with [(N-phenylacetyl-D-alanyl)thio]-acetic acid as substrate (Example 4). Format: biochemical. The settings on record: Example 4, Table IV. How it is done:
The process is the same as in example 3, except that, after the first incubation, 120 μl of an aqueous solution containing 5 mg/ml of [(N-phenylacetyl-D-alanyl)thio]-acetic acid are added.

The test system of experiment [4] is cells or cell parts of Bacillus stearothermiphilus. The note with it: enzyme-tagged antibiotic, visual colorimetric method; cited from earlier work.
In experiment [5] the target is T2, enzyme R39. The note with it: about 20 μl milk, 3 picomoles enzyme R39, cited from earlier work.

T1 sequence (P39045 50-515): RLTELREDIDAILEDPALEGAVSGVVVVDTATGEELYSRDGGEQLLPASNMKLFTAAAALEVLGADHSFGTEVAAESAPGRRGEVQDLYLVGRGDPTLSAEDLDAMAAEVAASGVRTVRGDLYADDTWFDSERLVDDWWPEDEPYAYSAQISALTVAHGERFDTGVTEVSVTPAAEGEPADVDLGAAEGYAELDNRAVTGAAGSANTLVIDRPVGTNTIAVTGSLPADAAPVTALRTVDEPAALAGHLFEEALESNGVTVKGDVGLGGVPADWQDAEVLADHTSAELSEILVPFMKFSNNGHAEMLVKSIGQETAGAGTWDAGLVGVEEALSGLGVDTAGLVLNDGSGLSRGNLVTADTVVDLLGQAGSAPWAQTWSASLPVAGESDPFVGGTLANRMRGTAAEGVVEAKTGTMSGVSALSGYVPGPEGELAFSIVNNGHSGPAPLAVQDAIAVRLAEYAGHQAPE
T2 sequence (P39045 50-515): as above

Consider `CC(=O)OCC1=C(C(=O)O)N2C(=O)[C@@H](NC(=O)CSc3ccncc3)[C@H]2SC1` [cephapirin], for which the Coloration entry in experiment [1] (cephapirin 0.002 μg/ml in 3 ml milk) is given as “medium yellow”; in experiment [1] (cephapirin 0.003 μg/ml in 3 ml milk) it was “pale yellow”; in experiment [1] (cephapirin 0.004 μg/ml in 3 ml milk) it was “white”; in experiment [1] (cephapirin 0.006 μg/ml in 3 ml milk) it was “white”. In experiment [1] (in 15 minutes time), the “cephapirin concentration in milk detected visually” value was determined as 0.004 µg/mL. On to `N=C(N)NCCC[C@@H](N)C(=O)O` [D-arginine], for which, on enzyme R39 [2], the “activating effect on the thioester hydrolysis reaction by enzyme R39” value (“activating effect … by enzyme R39” below) is reported as “best activators”.

As to `NCC(=O)O` [glycine], the “activating effect … by enzyme R39” value at enzyme R39 [2] was “activating effect”. For `N[C@H](Cc1c[nH]c2ccccc12)C(=O)O` [D-tryptophan], the “activating effect … by enzyme R39” value at enzyme R39 [2] is recorded as “best activators”. With `CC(C)[C@@H](N)C(=O)O` [D-valine], the “activating effect … by enzyme R39” value on enzyme R39 [2] is recorded as “best activators”. Take `N[C@H](CO)C(=O)O` [D-serine]: the “activating effect … by enzyme R39” value at enzyme R39 [2] is reported as “best activators”. Still for that read-out and setting: the value for `N[C@H](Cc1ccccc1)C(=O)O` [D-phenylalanine] was “best activators”. In the case of `C[C@@H](NC(=O)Cc1ccccc1)C(=O)SCC(=O)O` [[(N-phenylacetyl-D-alanyl)thio]-acetic acid], the “process carried out with this compound as substrate” value in experiment [3] is recorded as “successfully”. Consider `CSCC[C@@H](N)C(=O)O` [D-methionine], for which, at enzyme R39 [2], the “activating effect … by enzyme R39” value was “best activators”. For `C[C@@H](NC(=O)c1ccccc1)C(=O)SCC(=O)O` [[(N-benzoyl-D-alanyl)thio]-acetic acid], the “performance as substrate for enzyme R39” value on enzyme R39 [2] (among thioesters of formula I) is given as “best results”. Further, the “activity of enzyme R39 on the substrate” value at enzyme R39 [2] (in the absence of D-alanine) is 8 units per milligram of enzyme; at enzyme R39 [2] (in the presence of D-alanine) it was 320 units per milligram of enzyme. In the case of `C[C@@H](N)C(=O)O` [D-alanine], the “activating effect … by enzyme R39” value at enzyme R39 [2] is “best activators”. Turning to penicillin, the “penicillin concentration threshold detected in milk” value in experiment [4] is 0.05 IU/ml. Further, the “penicillin concentration in milk quantitatively determined (spectrophotometer)” value on enzyme R39 [5] is 0.02 I.U./ml. In addition, on enzyme R39 [5] (in less than one hour), the “penicillin concentration in milk qualitatively determined by the visual method” value is listed as “more than 0.09 I.U./ml”.

As for `CC[C@@H](N)C(=O)O` [D-2-aminobutyric acid], on enzyme R39 [2], the “activating effect … by enzyme R39” value is recorded as “best activators”. Regarding `N[C@H](Cc1c[nH]cn1)C(=O)O` [D-histidine], the “activating effect … by enzyme R39” value on enzyme R39 [2] was “best activators”.
